This is an account of results in patent US8299115B2, “Pyrrole-2-carboxamide derivatives as glucokinase activators, their process and pharmaceutical application” (priority 2007, dated 2012).

The target in data set [1] is T1, human recombinant glucokinase (Homo sapiens, UniProt P35557).
T1 sequence (P35557 1-465): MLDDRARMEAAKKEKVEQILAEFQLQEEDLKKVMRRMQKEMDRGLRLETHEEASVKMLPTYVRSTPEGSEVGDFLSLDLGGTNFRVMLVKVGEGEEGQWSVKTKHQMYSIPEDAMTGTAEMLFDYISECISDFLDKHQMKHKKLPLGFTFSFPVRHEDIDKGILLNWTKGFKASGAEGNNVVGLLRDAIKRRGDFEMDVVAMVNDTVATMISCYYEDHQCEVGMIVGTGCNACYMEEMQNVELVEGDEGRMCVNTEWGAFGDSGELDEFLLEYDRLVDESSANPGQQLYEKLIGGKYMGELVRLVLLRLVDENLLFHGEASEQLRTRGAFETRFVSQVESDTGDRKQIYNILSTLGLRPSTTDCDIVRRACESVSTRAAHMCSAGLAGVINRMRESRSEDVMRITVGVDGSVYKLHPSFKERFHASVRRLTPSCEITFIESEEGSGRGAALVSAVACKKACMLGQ
As to the kind of experiment: Glucokinase activation, coupled enzymatic assay (G6PD/NADH) at 5 mM glucose. To be noted: read-out: EC50 for GK activation at 5 mM glucose. The format is biochemical. An excerpt: (§1) Glucokinase (GK) activity, in vitro, has been measured using a coupled enzymatic assay (Ref: Hariharan et al (1997) Diabetes 46: 11-16). GK catalyzes the first step, the conversion of glucose to glucose-6-phosphate (G6P) in the presence of ATP. G6P in turn is converted by glucose-6-phosphate dehydrogenase (G6PD) to 6-phosphogluconate, a process that requires NAD, resulting in NADH formation. Since the GK-catalyzed step is the rate-limiting step of this coupled enzymatic process, the rate of accumulation of 6-phosphogluconate and NADH is directly proportional to the rate of glucose phosphorylation by GK. The rate of the GK-catalyzed reaction can therefore be measured by monitoring the increase in NADH absorbance at 340 nm.
(§2) The assay is carried out according to the protocol outlined in Hariharan et al (1997), Diabetes 46: 11-16. Briefly, the test compounds are incubated in a reaction mix containing 25 mM HEPES (pH 7.2), 10 mM MgCl2, 100 mM KCl, 5 mM ATP, 2 mM DTT, 0.5 mM NAD, 1 U/ml Leuconostoc mesenteroides G6PD, 0.3 U/ml of purified human recombinant GK, and different concentrations of glucose. Enzymatic activity is calculated from the initial reaction velocity, measured from the change in NADH absorbance as a function of time.
Compounds described in formula (I), in concentration ranges from 1.0 nM to 500 μM, are tested in the purified human recombinant glucokinase assay described above.
A compound is considered to be a glucokinase activator if it, in its testable range of concentrations, yields a higher rate of glucose phosphorylation than in its absence at a particular glucose concentration, for example at 5 mM glucose.

In data set [2] the target is T1, human recombinant glucokinase. As to the kind of experiment: Characterization of partial glucokinase activators: dose-dependent effect on S0.5 of glucokinase for glucose (% ΔS0.5). In kind it is biochemical. To be noted: for Emax: % change of S0.5 at saturating compound concentration, read-out: % Emax (with respect to % ΔS0.5); for EC50: sigmoidal fit of % ΔS0.5 vs log compound concentration, read-out: EC50 (with respect to % ΔS0.5).
Source text: as §1, §2
Compounds of interest from the general formula (I) are tested in the in vitro GK enzymatic assay to monitor dose-dependent effect on glucokinase activation (in kinetic mode), as described above, at various glucose concentrations. The maximum efficacy (Emax) and potency (EC50) for the assessment of partial glucokinase activation have been defined in our co-pending application 409/CHE/2007. The same definitions have also been used here. The S0.5 of glucokinase for glucose at different concentration of each compound of interest is calculated from the following modified version of the Michaelis-Menten equation, V=Vmax[S]^n/(S0.5^n+[S]^n), where [S] is the glucose concentration and n is the Hill coefficient (taken as 1.7 to account for the sigmoidal kinetics of glucokinase with respect to glucose). The S0.5 is plotted against the log of the compound concentration. The change in the S0.5 of glucokinase (ΔS0.5) for glucose is calculated by subtracting the S0.5 at each concentration of the compound from the S0.5 in the vehicle control. The ΔS0.5 is then normalized to a percent scale, where the S0.5 in the vehicle control is set to 0% and 0 mM glucose is set to 100%. The % ΔS0.5 is then plotted against the log of the compound concentration. The EC50 of % change in S0.5 is obtained from the sigmoidal fit of the data.

For data set [3] the following is noted: cited from earlier work.

The term EC50 denotes the concentration needed to bring the measured effect to its halfway point. Turning to `CC(C)C(O)c1cc(C(=O)Nc2ncc(Cl)s2)n(Cc2ccc(F)c(F)c2)c1` (stereo not shown) [Example C2, 1-(3,4-Difluoro-benzyl)-4-(1-hydroxy-2-methyl-propyl)-1H-pyrrole-2-carboxylic acid (5-chloro-thiazol-2-yl)-amide], the EC50 in data set [1] turned out to be 630 nM.
As to `CC(C)C(O)c1cc(C(=O)Nc2nccs2)n(Cc2ccc(S(C)(=O)=O)cc2)c1` (stereo not shown) [Example C6, 4-(1-Hydroxy-2-methyl-propyl)-1-(4-methanesulfonyl-benzyl)-1H-pyrrole-2-carboxylic acid thiazol-2-ylamide], in data set [1], the EC50 was found to be 600 nM.
Broadly, the Emax is the greatest response seen or fitted, relative to the assay's reference. Take `CC(C)Cc1cc(C(=O)Nc2ncc(Cl)s2)n(Cc2ccc(F)c(F)c2)c1` [Example A40, 1-(3,4-Difluoro-benzyl)-4-isobutyl-1H-pyrrole-2-carboxylic acid (5-chloro-thiazol-2-yl)-amide]: in data set [2], the maximal effect (Emax) was 65% and the EC50 is 200 nM.
`O=C(Nc1ncc(F)s1)[C@H](CC1CCOCC1)c1ccc(S(=O)(=O)C2CC2)cc1` [PSN-GK1]: the hypoglycemic potential result in data set [3] (at higher dose, Fyfe 2007) was “hypoglycemic potential”.
On to `CCOC(=O)Cc1nc(NC(=O)c2cc(CC(C)C)cn2Cc2ccc(F)c(F)c2)sc1Cl` [Example A116, (5-Chloro-2-{[1-(3,4-difluoro-benzyl)-4-isobutyl-1H-pyrrole-2-carbonyl]-amino}-thiazol-4-yl)-acetic acid ethyl ester], for which, in data set [2], the Emax was 70% and the EC50 came out at 300 nM.
Consider `CC(C)C(O)c1cc(C(=O)Nc2ncc(F)s2)n(Cc2ccc(S(C)(=O)=O)cc2)c1` (stereo not shown) [Example C8, 4-(1-Hydroxy-2-methyl-propyl)-1-(4-methanesulfonyl-benzyl)-1H-pyrrole-2-carboxylic acid (5-fluoro-thiazol-2-yl)-amide], for which the EC50 in data set [1] turned out to be 430 nM.
With Ro-28-1675 [reference compound], the “hypoglycemia in animal efficacy models” value in data set [3] (Kamata et al 2004) is “cause hypoglycemia”. Also, in data set [2] (drop from approximate 8 mM glucose, enzyme-based in vitro assay), the “S0.5 of glucokinase for glucose in presence of activator” value was not above 1.0 mM.
With `CC(C)Cc1cc(C(=O)Nc2ncc(Cl)s2)n(Cc2ccc(F)c(C(F)(F)F)c2)c1` [Example A31, 1-(4-Fluoro-3-trifluoromethyl-benzyl)-4-isobutyl-1H-pyrrole-2-carboxylic acid (5-chloro-thiazol-2-yl)-amide], in data set [2], the Emax was determined as 40% and the EC50 amounted to 220 nM.
On to `CS(=O)(=O)c1ccc(Cc2cc(C(=O)Nc3nc(CC(=O)O)c(Cl)s3)n(Cc3ccc(F)c(F)c3)c2)cc1` [Example E23, (5-Chloro-2-{[1-(3,4-difluoro-benzyl)-4-(4-methanesulfonyl-benzyl)-1H-pyrrole-2-carbonyl]-amino}-thiazol-4-yl)-acetic acid], for which the EC50 in data set [1] amounted to 300 nM.
